As usually defined, the IC50 is the concentration at which inhibition is half-maximal.

This passage reports IC50 results from patent publication US10717746B2, “Chemical compounds” (ASTRAZENECA AB, priority 2015, dated 2020).

The subject of assay [1] is phosphorylation of RNA Polymerase II (RNAPII) at the Ser2 site in MCF7 cells. Put plainly: MCF7 pSer2 RNAPII MOA assay (immunofluorescence). It is filed as cell-based. The following applies: 6-hr treatment, read-out: p-Ser 2 RNAPII (IC50). Here is the method:
MCF7 pSer2 RNAPII MOA Assay
This is an immunofluorescence assay to determine the effect of CDK9 inhibitors on phosphorylation of RNA Polymerase II (RNAPII) at the Ser2 site in the breast cancer cell line, MCF7. On day one, 2500 MCF7 cells/well were seeded in 30 μl of growth media (RPMI+10% FBS+1% L-Glu+P/S) in 384-well black-wall clear-bottom plates, incubate plates overnight at 37° C. incubator. On the second day, the cells were treated with CDK9 inhibitors (7 point dose response ranging from 3 μM to 0.004 μM) using an ECHO liquid handler (Labcyte). After 6-hr treatment at 37° C. incubator, the cells were fixed with 30 µl/well 7.4% paraformaldehyde for 15 min at room temperature; the cells were washed twice with PBS, then permeabilized with 0.3% Triton X/PBS for 5 min at room temperature. After washing cells with PBS, the cells were incubated with 1:2000 diluted Anti-Ser2 Phospho-RNA pol II antibody (Covance MMS-129R) in 3% FBS/0.1% PBST overnight at 4° C. On the next day, the cells were washed twice with 0.1% PBST, then incubated with 1:1000 diluted Alexa Fluor 488 Goat-anti-mouse antibody (Life Technologies A-11001) and 1:4000 diluted DAPI at room temperature in dark. After one hour incubation, the cells were washed twice with 0.1% PBST, and once with PBS. The plates where sealed and read on an Acumen eX3 microplate cytometer (TTP Labtech) to assess phosphorylation level in each well.

The target in assay [2] is T1, CDK9/CycT1 (Homo sapiens (Human), UniProt P50750). Put plainly: CDK9 kinase assay, ATP concentration at Km (mobility shift, Caliper LC3000). The assay is classed as biochemical. The following applies: 6 μM ATP, 3 nM CDK9/CycT1; read-out: CDK9 ATP conc. at Km (IC50). Here is the method:
(§1) Activity of CDK9 was determined in-vitro using a mobility shift assay on a Caliper LC3000 reader (Caliper/PerkinElmer), which measures fluorescence of a phosphorylated and unphosphorylated fluorescent peptide substrate and calculates a ratiometric value to determine percent turnover. Phosphorylation of the peptide in the presence and absence of the compound of interest was determined. Enzyme/substrate/adenosine triphosphate (ATP) mix (3 nM CDK9/CycT1, 6 μM ATP, 1.5 μM CDK9 peptide substrate (FITC-X-GSRTPMY-NH2 (X: epsilon aminocaproic acid)), 50 mM HEPES (pH7.2), 1 mM dithiothreitol, 0.01% tween 20, 50 μg/mL bovine serum albumin, (final assay concentration)) (5 μl) was preincubated with 2 μl of compound for 15 minutes at 25° C. Reactions were initiated with 5 μl of 24 mM MgCl2 (10 mM final assay concentration) in buffer (50 mM HEPES (pH7.2), 1 mM dithiothreitol, 0.01% tween 20, 50 μg/mL bovine serum albumin, (final assay concentration) and incubated at 25° C. for 90 minutes and reactions were stopped by addition of 5 μl of Stop mix consisting of 65 mM HEPES (pH7.2), 35.5 mM EDTA, 0.227% Coatin Reagent 3 (Caliper/PerkinElmer), and 0.003% Tween. Phosphorylated and unphosphorylated substrate was detected by a Caliper LC3000 reader (Caliper/PerkinElmer) in the presence of separation buffer consisting of 100 mM HEPES (pH7.2), 15.8 mM EDTA, 0.1% Coatin Reagent 3 (Caliper/PerkinElmer), 0.015% Brij-35, 5% DMSO, and 5.6 mM MgCl2. CDK9 enzyme was acquired from Carna Biosciences (Catalogue number 04-110), the CDK9 peptide substrate was acquired from Intonation (Boston, Mass.; Custom-made).

Assay [3] concerns the target T1, CDK9/CycT1. Briefly: CDK9 kinase assay, high ATP concentration (5 mM ATP). The following applies: 1.5 nM CDK9, read-out: CDK9 High ATP conc. (IC50). The assay is classed as biochemical. Here is the method:
as §1
High ATP assays were run the same way with the following modifications: the final assay concentration of CDK9 was 1.5 nM and the final assay concentration of ATP was 5 mM.

Another assay deals with MV411 cells. Put plainly: MV411 caspase activity assay (Caspase-Glo 3/7). The following applies: Homo sapiens, MV4-11, 6 h, 6-hr treatment, caspase 3/7 induction. The assay is classed as cell-based. Here is the method:
MV411 Caspase Activity Assay
This is a cell assay to measure the induction of caspase activity in the acute myeloid leukemia cell line, MV411 after 6-hr treatment with CDK9 inhibitors. On the first day, 3000 MV411 cells/well were seeded in 50 μl of growth media (IMDM+10% FBS+2% L-Glu+P/S) in 384-well white plates, incubate plates in 37° C. incubator overnight. […] After 6 hour incubation in 37° C. incubator, 25 μl of Caspase-Glo 3/7 reagent (Promega) per well was added into each well, and plates were incubated at room temperature for 30 min in dark. The plates were read on an Infinite M200 microplate reader (Tecan) with a 100 ms integration time.

Where a name gives a salt, the structure may show the parent alone. Read-outs that look alike come from different tables or passages of the source.

T1 sequence (P50750 whole entry): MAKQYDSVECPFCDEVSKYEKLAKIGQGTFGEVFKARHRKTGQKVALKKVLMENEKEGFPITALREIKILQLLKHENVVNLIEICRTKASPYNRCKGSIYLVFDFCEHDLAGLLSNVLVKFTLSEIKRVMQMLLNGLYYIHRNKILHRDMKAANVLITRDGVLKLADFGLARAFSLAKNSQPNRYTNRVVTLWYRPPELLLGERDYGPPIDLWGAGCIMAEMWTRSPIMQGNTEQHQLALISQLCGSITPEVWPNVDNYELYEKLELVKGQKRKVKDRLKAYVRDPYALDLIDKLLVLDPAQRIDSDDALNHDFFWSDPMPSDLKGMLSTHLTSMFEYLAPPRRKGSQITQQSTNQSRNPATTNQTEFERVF
T1 sequence (O60563 whole entry partner): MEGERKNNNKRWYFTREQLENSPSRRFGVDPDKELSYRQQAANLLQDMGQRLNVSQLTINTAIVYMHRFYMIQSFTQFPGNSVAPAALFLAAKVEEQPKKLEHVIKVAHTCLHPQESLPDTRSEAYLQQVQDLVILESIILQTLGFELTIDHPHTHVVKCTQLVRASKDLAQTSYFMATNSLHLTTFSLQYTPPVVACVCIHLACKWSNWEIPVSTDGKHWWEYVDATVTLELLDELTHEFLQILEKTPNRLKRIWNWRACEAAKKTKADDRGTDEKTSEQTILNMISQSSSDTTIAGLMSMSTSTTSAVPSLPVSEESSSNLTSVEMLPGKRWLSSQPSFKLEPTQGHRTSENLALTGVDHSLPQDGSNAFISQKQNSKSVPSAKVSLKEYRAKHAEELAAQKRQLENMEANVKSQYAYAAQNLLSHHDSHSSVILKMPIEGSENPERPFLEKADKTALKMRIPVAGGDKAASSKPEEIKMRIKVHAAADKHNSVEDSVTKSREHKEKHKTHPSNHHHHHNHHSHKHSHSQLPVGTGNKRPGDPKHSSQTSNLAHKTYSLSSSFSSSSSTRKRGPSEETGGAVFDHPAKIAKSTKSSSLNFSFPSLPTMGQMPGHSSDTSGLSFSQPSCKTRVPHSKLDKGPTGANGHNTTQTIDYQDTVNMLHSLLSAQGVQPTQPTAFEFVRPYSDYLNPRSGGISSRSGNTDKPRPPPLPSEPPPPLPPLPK

For the compound `CC(=O)N[C@@H]1CCC[C@H](C(=O)Nc2cc(-c3cnn4c3CC(C)C4)c(Cl)cn2)C1` (single isomer, unassigned) [Example 41], the figures for the IC50 (in assay [1]; on CDK9/CycT1 [2]; on CDK9/CycT1 [3]) were 0.076 µM, less than 0.003 µM and 0.027 µM, respectively.

Turning to `CC(=O)N[C@H]1CCC[C@H](C(=O)Nc2cc(-c3cnn4c3CC(C)(C)C4)c(Cl)cn2)C1` (single isomer, unassigned) [Example 59, trans-3-acetamido-N-(5-chloro-4-(5,5-dimethyl-5,6-dihydro-4H-pyrrolo[1,2-b]pyrazol-3-yl)pyridin-2-yl)cyclohexanecarboxamide], the half-maximal inhibitory concentration (IC50) in assay [1] is greater than 2.44 µM.

Turning to `CC(=O)N[C@H]1CCC[C@H](C(=O)Nc2cc(-c3cnn4c3CCCC4)c(Cl)cn2)C1` (single isomer, unassigned) [Example 61, trans-3-acetamido-N-(5-chloro-4-(4,5,6,7-tetrahydropyrazolo[1,5-a]pyridin-3-yl)pyridin-2-yl)cyclohexanecarboxamide], in assay [1], the IC50 was greater than 3 µM.

As to `CC(=O)N[C@H]1CCC[C@H](C(=O)Nc2cc(-c3cnn4c3CCCC4)c(Cl)cn2)C1` (single isomer, unassigned) [Example 62, trans-3-acetamido-N-(5-chloro-4-(4,5,6,7-tetrahydropyrazolo[1,5-a]pyridin-3-yl)pyridin-2-yl)cyclohexanecarboxamide], the IC50 in assay [1] is 0.333 µM.

Take `CC(=O)N[C@@H]1CCC[C@H](C(=O)Nc2cc(-c3cnn4c3CC(C)CC4)c(Cl)cn2)C1` (single isomer, unassigned) [Example 65]: the IC50 in assay [1] was 0.037 µM; at CDK9/CycT1 [2], less than 0.003 µM; on CDK9/CycT1 [3], less than 0.004 µM.

With `CC(=O)N[C@@H]1CCC[C@H](C(=O)Nc2cc(-c3cnn4c3CCC(C)C4)c(Cl)cn2)C1` (single isomer, unassigned) [Example 68], the IC50 was 0.131 µM in assay [1] (Homo sapiens, MCF7, 6 h); less than 0.003 µM on CDK9/CycT1 [2]; 0.053 µM on CDK9/CycT1 [3].

On to `CC(=O)N[C@@H]1CCC[C@H](C(=O)Nc2cc(-c3cnn4c3CCC(C)C4)c(Cl)cn2)C1` (single isomer, unassigned) [Example 69], for which the IC50 in assay [1] is 0.193 µM; at CDK9/CycT1 [2], 0.005 µM; at CDK9/CycT1 [3] it was 0.246 µM.

For the compound `COC1CCc2c(-c3cc(NC(=O)[C@H]4CCC[C@@H](NC(C)=O)C4)ncc3Cl)cnn2C1` (single isomer, unassigned) [Example 70], the concentration for half-maximal inhibition (IC50) is 0.073 µM in assay [1], less than 0.003 µM on CDK9/CycT1 [2] and 0.02 µM on CDK9/CycT1 [3].

As for `COC1CCc2c(-c3cc(NC(=O)[C@H]4CCC[C@@H](NC(C)=O)C4)ncc3Cl)cnn2C1` (single isomer, unassigned) [Example 71], the IC50 was greater than 2.35 µM in assay [1], 0.016 µM at CDK9/CycT1 [2] and 1.72 µM at CDK9/CycT1 [3].

In the case of `COC1CCn2ncc(-c3cc(NC(=O)[C@H]4CCC[C@@H](NC(C)=O)C4)ncc3Cl)c2C1` (single isomer, unassigned) [Example 73], the results for the IC50 (in assay [1]; on CDK9/CycT1 [2]; at CDK9/CycT1 [3]) were 0.218 µM, less than 0.003 µM and 0.039 µM, respectively.

Regarding `CC(=O)N[C@@H]1CCC[C@H](C(=O)Nc2cc(-c3cnn4c3C(O)C(C)(C)C4)c(Cl)cn2)C1` (single isomer, unassigned) [Example 79], the half-maximal inhibitory concentration (IC50) is 0.01 µM in assay [1], less than 0.003 µM at CDK9/CycT1 [2] and less than 0.003 µM on CDK9/CycT1 [3].

As to `CC(=O)N[C@@H]1CCC[C@H](C(=O)Nc2cc(-c3cnn4c3C(O)C(C)(C)C4)c(Cl)cn2)C1` (single isomer, unassigned) [Example 80], the results for the half-maximal inhibitory concentration (IC50) (in assay [1]; on CDK9/CycT1 [2]; at CDK9/CycT1 [3]) were 0.247 µM, 0.004 µM and 0.135 µM, respectively.

For `CC(=O)N[C@@H]1CCC[C@H](C(=O)Nc2cc(-c3cnn4c3CCCC4)c(Cl)cn2)C1` [Example 2, (1S,3R)-3-acetamido-N-(5-chloro-4-(4,5,6,7-tetrahydropyrazolo[1,5-a]pyridin-3-yl)pyridin-2-yl)cyclohexanecarboxamide], the concentration for half-maximal inhibition (IC50) in assay [1] (Homo sapiens, MCF7, 6 h) came to 0.13 µM; with MV411 cells it was 0.12 µM.

In the case of `CC(=O)N[C@H]1CCC[C@@H](C(=O)Nc2cc(-c3cnn4c3CCCC4)c(Cl)cn2)C1` [Example 9, (1R,3S)-3-acetamido-N-(5-chloro-4-(4,5,6,7-tetrahydropyrazolo[1,5-a]pyridin-3-yl)pyridin-2-yl)cyclohexanecarboxamide], the 50% inhibitory concentration (IC50) in assay [1] (Homo sapiens, MCF7, 6 h) was greater than 3 µM; in the assay with MV411 cells, 4.09 µM.

For the compound `CC(=O)N[C@@H]1CCC[C@H](C(=O)Nc2cc(-c3cnn4c3CC(C)(C)C4)c(Cl)cn2)C1` [Example 14, (1S,3R)-3-acetamido-N-(5-chloro-4-(5,5-dimethyl-5,6-dihydro-4H-pyrrolo[1,2-b]pyrazol-3-yl)pyridin-2-yl)cyclohexanecarboxamide], the IC50 in assay [1] (Homo sapiens, MCF7, 6 h) worked out at 0.023 µM; in the assay with MV411 cells, 0.014 µM.

On to `CC(=O)N[C@@H]1CCC[C@H](C(=O)Nc2cc(-c3cnc4n3CC(C)(C)C4)c(Cl)cn2)C1` [Example 22, (1S,3R)-3-acetamido-N-(5-chloro-4-(6,6-dimethyl-6,7-dihydro-5H-pyrrolo[1,2-a]imidazol-3-yl)pyridin-2-yl)cyclohexanecarboxamide], for which the IC50 in assay [1] (Homo sapiens, MCF7, 6 h) is 0.036 µM; with MV411 cells it was 0.054 µM.

Take `N[C@@H]1CCC[C@H](C(=O)Nc2cc(-c3cnn4c3CCCC4)c(Cl)cn2)C1` [Example 31b, (1S,3R)-3-amino-N-(5-chloro-4-(4,5,6,7-tetrahydropyrazolo[1,5-a]pyridin-3-yl)pyridin-2-yl)cyclohexanecarboxamide dihydrochloride]: the IC50 worked out at 1.8 µM in assay [1] (Homo sapiens, MCF7, 6 h); 0.036 µM at CDK9/CycT1 [2]; 2.65 µM at CDK9/CycT1 [3].

Turning to `CC(=O)N[C@H]1CCC[C@@H](C(=O)Nc2cc(-c3cnn4c3CC(C)(C)C4)c(Cl)cn2)C1` [Example 43, (1R,3S)-3-acetamido-N-(5-chloro-4-(5,5-dimethyl-5,6-dihydro-4H-pyrrolo[1,2-b]pyrazol-3-yl)pyridin-2-yl)cyclohexanecarboxamide], the IC50 in assay [1] (Homo sapiens, MCF7, 6 h) was 0.307 µM; with MV411 cells, 0.416 µM.

Consider `CC(=O)N[C@@H]1CCC[C@H](C(=O)Nc2cc(-c3cnn4c3CC(C)(C)C4)c(C)cn2)C1` [Example 47, (1S,3R)-3-acetamido-N-(4-(5,5-dimethyl-5,6-dihydro-4H-pyrrolo[1,2-b]pyrazol-3-yl)-5-methylpyridin-2-yl)cyclohexanecarboxamide], for which the IC50 is 0.04 µM in assay [1] (Homo sapiens, MCF7, 6 h) and 0.074 µM in the assay on MV411 cells.

As to `CC1(C)Cc2c(-c3cc(NC(=O)[C@H]4CCC[C@@H](NC(=O)CCO)C4)ncc3Cl)cnn2C1` [Example 52, (1S,3R)—N-(5-chloro-4-(5,5-dimethyl-5,6-dihydro-4H-pyrrolo[1,2-b]pyrazol-3-yl)pyridin-2-yl)-3-(3-hydroxypropanamido)cyclohexanecarboxamide], the IC50 at CDK9/CycT1 [2] is less than 0.003 µM; on CDK9/CycT1 [3], 0.004 µM.
